The values below are quoted from earlier work in patent US7977373B2, “Prodrugs of ion channel modulating compounds and uses thereof” (Cardiome Pharma Corp., priority 2004, dated 2011).

SMILES strings stand for the structures.

As for `CCCCCCCN(CC)CCCC(O)c1ccc(NS(C)(=O)=O)cc1` (centres unmarked) [ibutilide], the “patients requiring cardioversion for refractory ventricular arrhythmias” value is roughly 1.7%. The “risk of ventricular proarrhythmia” value (estimated, patients) is recorded as roughly 4.4%.
